Assay results published in patent publication EP2805714B1, “STABLE PHARMACEUTICAL COMPOSITION COMPRISING AMORPHOUS ROSUVASTATIN CALCIUM” (Antibiotice S.A., priority 2013, dated 2014).

Assay: Stability test according to ICH guidelines, related substances by in-house HPLC method
Format: physicochemical
Details: rosuvastatin calcium amorphous active substance (raw material)
Method: We performed stability tests on these tablet compositions, according to the method described in ICH guidelines. The tablets were packed in opaque OPA/Al/PVC-Al blisters with very low oxygen and humidity transmission rates. Using a HPLC in house method, we measured the level of lactone and total impurities formed after a period of storage of 12 months at 25°C/60%RH (normal conditions, A1) and of 6 months at 40°C/[…]. The results were compared with those obtained for the tablets at the moment of release (TO) and those obtained for the rosuvastatin calcium amorphous active substance (Table 2). Table 2. Related substances values for the tested formulations

For `CC(C)c1nc(N(C)S(C)(=O)=O)nc(-c2ccc(F)cc2)c1/C=C/[C@@H](O)C[C@@H](O)CC(=O)[O-].CC(C)c1nc(N(C)S(C)(=O)=O)nc(-c2ccc(F)cc2)c1/C=C/[C@@H](O)C[C@@H](O)CC(=O)[O-].[Ca+2]` [RC amorphous, bis [(E)-7-[4-(4-fluorophenyl)-6-isopropyl-2-[methyl(methylsulfonyl)amino]pyrimidin-5-yl]-(3R,5S)-dihydroxyhept-6-enoic acid] calcium salt], which “Lactone, %” value is on record?
Its value is 0.010%.

And the “Total impurities, %” value?
The value was 0.150%.
